Reference: US20070148684A1, “IMMUNOASSAY FOR HIV PROTEASE INHIBITORS” (priority 2000, published 2007)

System: saquinavir antiserum
Assay: Assay specificity determination: competitive microtiter plate ELISA with saquinavir-BSA coated plate and saquinavir antiserum
Format: binding, sheep
Settings: for dose-response of optical density at 450 nm (competition for antiserum binding): serial three-fold dilutions of drug in PBS-TWEEN, antiserum 1:12,800, 62.5 ng/ml saquinavir-BSA coat
Description: Corning micro-ELISA plates (96 wells) were used throughout. The saquinavir-BSA conjugate was diluted to 2 μg/ml in 0.1 M sodium carbonate buffer, pH 9.5. One hundred microliters of the buffer was placed in the wells of each row of the plate except the first row. The first row was filled with 200 μL of the 2 μg/ml saquinavir-BSA solution, and a twelve-tip micropipettor was used to transfer 100 μl from the first row to the second row of all columns at the same time. Mixing of contents of the second row was accomplished by re-pipetting 3 times. One hundred microliters from the second row was then transferred to the third row and mixed. This was repeated to the last row of the plate. After mixing, 100 μl was removed from the last row and discarded. The plate was placed in a humidified Zip-Loc bag and incubated for 1 hour at 37° C. After incubation, the plate was removed from the incubator and bag and emptied into a waste container. PostCoat solution was added to each well in the amount of 200 μl. This solution consisted of 1% gelatin hydrolysate, 2% sucrose, 0.15 M Tris, pH 7.4, 0.17% TWEEN 20 (ICI Americas Inc.), and 0.02% Thimerosal preservative. All reagents were from Sigma Chemicals. The plate was returned to the humidified bag and placed in the incubator for 1 hour. Five minutes before the incubation was complete, Zymed rabbit anti-sheep IgG-HRP conjugate was diluted 1:2000 in PBS-TWEEN and vortexed gently to completely mix. Upon completion of the hour incubation, the plate was washed 4 times with 300 μl of PBS-TWEEN using a BioTek Instruments, Inc. EL404 plate washer. One hundred microliters of the diluted rabbit anti-sheep IgG-HRP conjugate was then pipetted into each well, the plate re-bagged and incubated for 1 hour. At the completion of the hour, the plate was removed from the incubator and bag and washed six times on the plate washer. One hundred microliters of K-BLUE enzyme substrate (Neogen, Inc.) was then added to each well and color allowed to develop in the dark for 5 minutes. Color development was halted by the addition of 100 μl of 1 N hydrochloric acid to each well. The optical density of each well was measured at two wavelengths, 405 nm and 450 nm using a Molecular Devices, Inc. ThermoMax plate reader. […] Therefore, the OD405 measurements were used to calculate the extrapolated OD450 by the well-known method of using a linear least squares regression of readings at both wavelengths. An ELISA plate was coated with the above concentrations of saquinavir-BSA using the same conditions as set forth above. While the plates were being PostCoated, serial three-fold dilutions of saquinavir, ritonavir, indinavir, and nelfinavir were prepared in a 1 ml capacity 96-well plate. All drugs were prepared at 1 mg/ml in absolute methanol and stored at 4° C. until used. […]

## Cc1c(O)cccc1C(=O)N[C@@H](CSc1ccccc1)[C@H](O)CN1C[C@H]2CCCC[C@H]2C[C@H]1C(=O)NC(C)(C)C [nelfinavir]
Relative to saquinavir, calculated from OD450 dose-response data
  cross-reaction of the antiserum: 0.4%
  dose-response of optical density at 450 nm (competition for antiserum binding): lesser response

## CC(C)(C)NC(=O)[C@@H]1C[C@@H]2CCCC[C@@H]2CN1C[C@@H](O)[C@H](Cc1ccccc1)NC(=O)[C@H](CC(N)=O)NC(=O)c1ccc2ccccc2n1 [saquinavir]
Lowest non-zero drug concentration in Example 5 (7 dilution steps)
  inhibition with respect to zero drug: ~50%
  dose-response of optical density at 450 nm (competition for antiserum binding): dose-response curve
